Bridges are numbered along the chain shown (N, C = ends). Roman numbers before positions name the chains, in order.

For data set [1], the target named is T1, trypsin (bovine pancreas) (Bos taurus, UniProt P00760).
T1 construct: from tissue; host or cells: bovine pancreas
T1 sequence (P00760 24-246): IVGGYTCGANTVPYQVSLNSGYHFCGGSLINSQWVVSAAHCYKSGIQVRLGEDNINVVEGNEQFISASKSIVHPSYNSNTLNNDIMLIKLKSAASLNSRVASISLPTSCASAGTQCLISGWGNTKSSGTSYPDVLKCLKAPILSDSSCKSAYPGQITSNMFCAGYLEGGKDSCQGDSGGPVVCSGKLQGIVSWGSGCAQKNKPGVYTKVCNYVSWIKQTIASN
Kind of data set: in vitro. Format: in vitro ADME. Conditions: 100 µM, 12 μM trypsin, 100 mM HEPES pH 7.5, 37 °C, HPLC. The method, then:
(§1) page 8: determined as reported periously10 at the data was fitted to the Hills equation using MatLab.11 Stability Studies: Zinc transmetallation experiments: Emission spectra of Tb(III) were recorded for 1.0 µM […] Zinc chloride (ZnCl₂) was then added to each cuvette to give a final concentration of 125 µM Zn(II), and the fluorescence emission spectra were subsequently collected over time. The Tb(III) emission for each sample was normalized to the integrated intensity of the 545 nm emission peak from the initial spectrum. Phosphate and HEPES: Emission spectra of Tb(III) were recorded for 1.0 µM solutions of […] Phosphate buffer prepared from a mixture of sodium monobasic and tribasic phosphate salts (to give a stock concentration of 100 mM at pH 7.0) […] Fluorescence emission spectra were subsequently collected over time. The Tb(III) emission for each sample was normalized to the integrated intensity of the 545 nm emission peak from the initial spectrum. A control was carried out using the same methodology, this time monitoring the change in Tb emission upon the addition of HEPES buffer instead of phosphate. Protease experiments: A trypsin (bovine pancreas) stock solution was prepared (1.5 mg/mL) by dissolving in 100 mM HEPES at pH 7.5. The peptide stock solution was prepared by dissolving the lyophilized peptide in the same buffer solution, and the concentration determined as reported previously. In the case when the peptide was metalated, samples were left to equilibrate with the metal upon addition for around 60 min. prior to the addition of the trypsin. Samples were left to incubate in a water bath at 37°C. At specific time points, 35 µl of each sample were taken and quenched with 35 µl of 4% TFA solution. […] Individual peaks from the HPLC were collected and then analyzed by ESI mass spectrometry in positive mode. Samples were ionised using nanoelectrospray ionisation (TriVersa NanoMate, Advion Interchim Scientific, […] 8 page 27: Figure S14: […] Figure S14: […] pancreas) and 100 mM HEPES buffered at pH 7.5. […] monitored. 27 (1 picture or pasted object on this page, not shown here) page 28: Figure S15: […] Figure S15: […] pancreas) and 100 mM HEPES buffered at pH 7.5. […] monitored. 28 (1 picture or pasted object on this page, not shown here)

Data set [2] deals with T2, trypsin (bovine pancreas).
T2 construct: from tissue; host or cells: bovine pancreas
Kind of data set: in vitro. Format: in vitro ADME. Conditions: isolated enzyme trypsin, 100 µM, 12 μM trypsin, 100 mM HEPES pH 7.5, 37 °C, HPLC, trimers lacking C-terminal G-NH2 or Ac-G IAAIEQK counted. How it is done: as §1

As to “I: Ac-GIAAIEQKIAANEWKDAAIEQKIAAIEQKIAAIEQKG-NH2 / II: Ac-GIAAIEQKIAANEWKDAAIEQKIAAIEQKIAAIEQKG-NH2 / III: Ac-GIAAIEQKIAANEWKDAAIEQKIAAIEQKIAAIEQKG-NH2 (amide I:15-II:20, I:20-III:15, II:15-III:20) [KH2-20X]”, in data set [1], the “abundance of trimeric cross-linked IAANEWK DAAIEQK fragment at 30 min, apo” value is listed as 5% and the “abundance of trimeric cross-linked IAANEWK DAAIEQK fragment at 6 h, apo” value is recorded as 20%. For the same substance, the fraction remaining at 0.5 h in data set [2] (read-out: % remaining intact as trimers after 30 min trypsin, apo) was approximately 74%. Moreover, the fraction remaining at 6 h in data set [2] (read-out: % remaining intact as trimers after 6 h trypsin, apo) was approximately 45%.
